According to patent US5229381A, “Substituted azetidinones as anti-inflammatory and antidegenerative agents” (Merck & Co., Inc., priority 1991, dated 1993):

Molecular target: T1, human polymorphonuclear leukocyte elastase (Homo sapiens, UniProt P08246)
T1 construct: Crude extract of human polymorphonuclear leukocytes (PMN) containing elastase activity; endogenous in cells; host or cells: human polymorphonuclear leukocytes (crude extract)
T1 sequence (P08246 30-247 limits assumed): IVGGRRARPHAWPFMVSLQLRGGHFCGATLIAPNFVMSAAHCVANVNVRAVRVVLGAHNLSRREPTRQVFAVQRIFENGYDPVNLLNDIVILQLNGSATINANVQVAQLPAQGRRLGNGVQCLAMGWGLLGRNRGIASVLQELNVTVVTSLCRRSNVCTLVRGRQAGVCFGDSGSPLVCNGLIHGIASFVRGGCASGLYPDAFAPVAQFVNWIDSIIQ
Assay: Inhibition of human polymorphonuclear leukocyte (granulocyte) elastase via hydrolysis of Boc-AAPAN or Boc-AAPVN
Assay type: biochemical
Details: pH 7.5, Table VI, (per mole per second); read-out: kobs/I, second order rate constant of inactivation of the enzyme
Description: Enzyme Assays for the Inhibition of Human Polymorphonuclear Leukocyte Elastase Via Hydrolysis of N-t-Boc-alanyl-alanyl-prolylalanine-p-nitroanilide (Boc-AAPAN) or N-t-Boc-alanyl-prolylvaline-p-nitroanilide (Boc-AAPVN) Reagent:
0.05M TES (N-tris[hydroxymethyl]methyl-2-amino-ethanesulfonic acid) Buffer, pH 7.5.
0.2 mM Boc-AAPAN or Boc-AAPVN.
To prepare substrate, the solid was first dissolved in 10.0 ml DMSO. Buffer at pH 7.5 was then added to a final volume of 100 ml.
Crude extract of human polymorphonuclear leukocytes (PMN) containing elastase activity.
Inhibitors (azetidinones) to be tested dissolved in DMSO just before use.
To 1.0 ml of 0.2 mM Boc-AAPAN in a cuvette, 0.01-0.1 ml of DMSO with or without inhibitor was added. After mixing, a measurement was taken at 410 mμ to detect any spontaneous hydrolysis due to presence of test compound. 0.05 Milliliters of PMN extract was then added and the ΔOD/min at 410 mμ was measured and recorded. Beckman model 35 spectrophotometer was used.
Results were also expressed as Ki, the micromolar concentration of the inhibitor (μM) giving 50% of the control enzyme activity; or as ^k obs/I which is the second order rate constant in per mole per second for inactivation of the enzyme.
The elastase activity in the crude PMN extract may vary from one preparation to another. A control of each new batch is run, and the volume added in the assay procedure is adjusted according to activity.

| Compound | kinact/KI [M⁻¹ s⁻¹] |
| --- | --- |
| CCC[C@@H](NC(=O)N1C(=O)C(CC)(CC)[C@@H]1Oc1ccc(C(=O)O)cc1)c1ccc(C)cc1 [Table VI: 4-COOH; nPr; 4-Me, (4S)-3,3-diethyl-1-[(R)-α-n-propyl-(4-methyl)-benzylaminocarbonyl]-4-[(4-carboxy)phenoxy]azetidin-2-one] | 389000 |
| CCC[C@@H](NC(=O)N1C(=O)C(CC)(CC)[C@@H]1Oc1ccc(CC(=O)O)cc1)c1ccc2occc2c1 [Table VI: 4-Ch2(OOH); nPr; 3,4(-CHCHO), (4S)-3,3-Diethyl-1-[[(R)-1-(benzofuran-5-yl)butylamino]carbonyl]-4-[4-(carboxymethyl)phenoxy]azetidin-2-one] | 848000 |
